Assay results taken from PubChem BioAssay AID2060617 (Molecular Pharmacology Branch, DTP, NCI, 2025).
pIC50: −log10 of the molar value.

System: 485368-065-R4-J2-PDC spheroids with HUVEC/MSC, viability
Assay: Anticancer human tumor 485368-065-R4-J2-PDC patient-derived pancreatic carcinoma cell line growth inhibition [CLK]
Settings: for pIC50: curve of first compound; for viability, T/C: stronger effect = lower value
Summary of the method: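 Multi-cell-type spheroids combined patient-derived tumor cells with HUVEC endothelial cells and human mesenchymal stem cells. Paired agents were dosed in half-log steps down from about clinical Cmax, or from 10 microM where Cmax was unknown.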

[1] = second compound 0.0316 µM, first compound 0.0316 µM
[2] = second compound 0.0316 µM, first compound 0.1 µM
[3] = second compound 0.1 µM, first compound 0.0316 µM
[4] = second compound 0.1 µM, first compound 0.1 µM
[5] = second compound 0.316 µM, first compound 0.0316 µM
[6] = second compound 0.316 µM, first compound 0.1 µM
[7] = second compound 1 µM, first compound 0.0316 µM
[8] = second compound 1 µM, first compound 0.1 µM
[9] = second compound 3.16 µM, first compound 0.0316 µM
[10] = second compound 3.16 µM, first compound 0.1 µM
[11] = second compound 10 µM, first compound 0.0316 µM
[12] = second compound 10 µM, first compound 0.1 µM
[13] = second compound 0.0316 µM, first compound 0.316 µM
[14] = second compound 0.0316 µM, first compound 1 µM
[15] = second compound 0.0316 µM, first compound 3.16 µM
[16] = second compound 0.0316 µM, first compound 10 µM
[17] = second compound 0.1 µM, first compound 0.316 µM
[18] = second compound 0.1 µM, first compound 1 µM
[19] = second compound 0.1 µM, first compound 3.16 µM
[20] = second compound 0.1 µM, first compound 10 µM
[21] = second compound 0.316 µM, first compound 0.316 µM
[22] = second compound 0.316 µM, first compound 1 µM
[23] = second compound 0.316 µM, first compound 3.16 µM
[24] = second compound 0.316 µM, first compound 10 µM
[25] = second compound 1 µM, first compound 0.316 µM
[26] = second compound 1 µM, first compound 1 µM
[27] = second compound 1 µM, first compound 3.16 µM
[28] = second compound 1 µM, first compound 10 µM
[29] = second compound 3.16 µM, first compound 0.316 µM
[30] = second compound 3.16 µM, first compound 1 µM
[31] = second compound 3.16 µM, first compound 3.16 µM
[32] = second compound 3.16 µM, first compound 10 µM
[33] = second compound 10 µM, first compound 0.316 µM
[34] = second compound 10 µM, first compound 1 µM
[35] = second compound 10 µM, first compound 3.16 µM
[36] = second compound 10 µM, first compound 10 µM
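Further: spheroids exposed to compounds for seven days.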
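Wherever viability, T/C is given: 100% = DMSO vehicle control wells.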

Work on Cn1ncnc1[C@H]1c2n[nH]c(=O)c3cc(F)cc(c23)N[C@@H]1c1ccc(F)cc1 + CNC(=O)c1ccc(Nc2nc(OC3CCCC3)c3c(-c4ccc5nc(C)oc5c4)c[nH]c3n2)c(OC)c1 yielded a pIC50 (second compound 0.0316 µM) of less than 7.00, a pIC50 (second compound 0.1 µM) of less than 7.00 and a pIC50 (second compound 0.316 µM) of less than 7.00. For the same molecule, the pIC50 (second compound 1 µM) was less than 7.00, the pIC50 (second compound 3.16 µM) was less than 7.00 and the pIC50 (second compound 10 µM) was less than 7.00. For the same molecule, the viability, T/C (second compound 0.0316 µM, first compound 0.000316 µM) was 91.9%, the viability, T/C (second compound 0.0316 µM, first compound 0.001 µM) was 94.1% and the viability, T/C (second compound 0.0316 µM, first compound 0.00316 µM) was 97.4%. For the same molecule, the viability, T/C (second compound 0.0316 µM, first compound 0.01 µM) was 105%, the viability, T/C [1] was 98% and the viability, T/C [2] was 90.8%. It also gave a viability, T/C (second compound 0.1 µM, first compound 0.000316 µM) of 89.3%, a viability, T/C (second compound 0.1 µM, first compound 0.001 µM) of 97.8% and a viability, T/C (second compound 0.1 µM, first compound 0.00316 µM) of 99%. For the same molecule, the viability, T/C (second compound 0.1 µM, first compound 0.01 µM) was 105%, the viability, T/C [3] was 89.7% and the viability, T/C [4] was 82.4%. For the same molecule, the viability, T/C (second compound 0.316 µM, first compound 0.000316 µM) was 79.6%, the viability, T/C (second compound 0.316 µM, first compound 0.001 µM) was 79.5% and the viability, T/C (second compound 0.316 µM, first compound 0.00316 µM) was 81.2%. It also gave a viability, T/C (second compound 0.316 µM, first compound 0.01 µM) of 77.9%, a viability, T/C [5] of 89% and a viability, T/C [6] of 73%. The viability, T/C (second compound 1 µM, first compound 0.000316 µM) was 74.7%, the viability, T/C (second compound 1 µM, first compound 0.001 µM) was 75.8% and the viability, T/C (second compound 1 µM, first compound 0.00316 µM) was 79%. For the same molecule, the viability, T/C (second compound 1 µM, first compound 0.01 µM) was 66.6%, the viability, T/C [7] was 77% and the viability, T/C [8] was 63.3%. It also gave a viability, T/C (second compound 3.16 µM, first compound 0.000316 µM) of 78.4%, a viability, T/C (second compound 3.16 µM, first compound 0.001 µM) of 74.3% and a viability, T/C (second compound 3.16 µM, first compound 0.00316 µM) of 69.8%. It also gave a viability, T/C (second compound 3.16 µM, first compound 0.01 µM) of 67.4%, a viability, T/C [9] of 59.1% and a viability, T/C [10] of 66%. For the same molecule, the viability, T/C (second compound 10 µM, first compound 0.000316 µM) was 70%, the viability, T/C (second compound 10 µM, first compound 0.001 µM) was 69.7% and the viability, T/C (second compound 10 µM, first compound 0.00316 µM) was 60.8%. It also gave a viability, T/C (second compound 10 µM, first compound 0.01 µM) of 62.9%, a viability, T/C [11] of 64.2% and a viability, T/C [12] of 57.9%.

For Nc1ccn(C2OC(CO)C(O)C2(F)F)c(=O)n1 (stereo unspecified) + CNC(=O)c1ccc(Nc2nc(OC3CCCC3)c3c(-c4ccc5nc(C)oc5c4)c[nH]c3n2)c(OC)c1, the pIC50 (second compound 0.0316 µM) was 7.14, the pIC50 (second compound 0.1 µM) was 7.19 and the pIC50 (second compound 0.316 µM) was 7.31. It also gave a pIC50 (second compound 1 µM) of 7.36, a pIC50 (second compound 3.16 µM) of 7.46 and a pIC50 (second compound 10 µM) greater than 7.50. The viability, T/C [1] was 66.8%, the viability, T/C [2] was 45% and the viability, T/C [13] was 32.3%. For the same molecule, the viability, T/C [14] was 35.2%, the viability, T/C [15] was 33.5% and the viability, T/C [16] was 30.5%. The viability, T/C [3] was 62.8%, the viability, T/C [4] was 43.4% and the viability, T/C [17] was 31.1%. It also gave a viability, T/C [18] of 33.4%, a viability, T/C [19] of 32.4% and a viability, T/C [20] of 26.6%. The viability, T/C [5] was 59.8%, the viability, T/C [6] was 34% and the viability, T/C [21] was 27.5%. The viability, T/C [22] was 24.8%, the viability, T/C [23] was 25.1% and the viability, T/C [24] was 21.8%. It also gave a viability, T/C [7] of 58%, a viability, T/C [8] of 28.2% and a viability, T/C [25] of 20.7%. For the same molecule, the viability, T/C [26] was 17.2%, the viability, T/C [27] was 16.1% and the viability, T/C [28] was 13.9%. For the same molecule, the viability, T/C [9] was 51.8%, the viability, T/C [10] was 28.1% and the viability, T/C [29] was 18.7%. For the same molecule, the viability, T/C [30] was 15.4%, the viability, T/C [31] was 14.5% and the viability, T/C [32] was 13.2%. For the same molecule, the viability, T/C [11] was 50%, the viability, T/C [12] was 24.5% and the viability, T/C [33] was 18.6%. The viability, T/C [34] was 16%, the viability, T/C [35] was 13.3% and the viability, T/C [36] was 11.2%.

O=C(c1cc(Cc2n[nH]c(=O)c3ccccc23)ccc1F)N1CCN(C(=O)C2CC2)CC1 + CNC(=O)c1ccc(Nc2nc(OC3CCCC3)c3c(-c4ccc5nc(C)oc5c4)c[nH]c3n2)c(OC)c1 gave a pIC50 (second compound 0.0316 µM) of less than 5.00, a pIC50 (second compound 0.1 µM) of less than 5.00 and a pIC50 (second compound 0.316 µM) of less than 5.00. For the same molecule, the pIC50 (second compound 1 µM) was less than 5.00, the pIC50 (second compound 3.16 µM) was less than 5.00 and the pIC50 (second compound 10 µM) was less than 5.00. It also gave a viability, T/C [1] of 88%, a viability, T/C [2] of 101% and a viability, T/C [13] of 94.5%. It also gave a viability, T/C [14] of 102%, a viability, T/C [15] of 106% and a viability, T/C [16] of 100%. The viability, T/C [3] was 97.5%, the viability, T/C [4] was 106% and the viability, T/C [17] was 104%. It also gave a viability, T/C [18] of 106%, a viability, T/C [19] of 101% and a viability, T/C [20] of 86.1%. For the same molecule, the viability, T/C [5] was 87.9%, the viability, T/C [6] was 91% and the viability, T/C [21] was 91.6%. For the same molecule, the viability, T/C [22] was 83.7%, the viability, T/C [23] was 84.3% and the viability, T/C [24] was 81.7%. It also gave a viability, T/C [7] of 83.6%, a viability, T/C [8] of 83.3% and a viability, T/C [25] of 86.2%. It also gave a viability, T/C [26] of 78.3%, a viability, T/C [27] of 78.8% and a viability, T/C [28] of 71.8%. For the same molecule, the viability, T/C [9] was 75.9%, the viability, T/C [10] was 77.6% and the viability, T/C [29] was 72.9%. The viability, T/C [30] was 73.5%, the viability, T/C [31] was 69.6% and the viability, T/C [32] was 68.2%. For the same molecule, the viability, T/C [11] was 76.3%, the viability, T/C [12] was 86.9% and the viability, T/C [33] was 77.5%. The viability, T/C [34] was 76.5%, the viability, T/C [35] was 77.3% and the viability, T/C [36] was 59.3%.
